Measurements from article PMC6905855, “Agonist-specific voltage-dependent gating of lysosomal two-pore Na^+ channels” (eLife, 2019).
“And” between values parts separate entries of the source, which are not always exact repeats. Identical values can stand only once. Counter-ions that a name gives are not always drawn. Like-named read-outs stand apart in the source and are kept apart here.

Assays:
[1] = target: T1, surface-expressing mutant TPC2 channel (TPC2^LL/AA) in HEK293 cells (Homo sapiens, UniProt Q8NHX9, L11A/L12A); assay: Whole-cell recordings of ITPC2-LL/AA; type: cell-based; details: for I-TPC2: preliminary whole-cell test of positive LOPAC hits, HEK293 cells overexpressing TPC2 LL/AA, voltage ramp -140 to +100 mV (200 ms), measured at -140 mV; for activation of whole-cell ITPC2-LL/AA (in words): bath application, symmetric Na^+, 100 µM where stated; for current density: whole cell recordings, individual recordings; for EC50: whole-cell recordings at −140 mV, TPC2^LL/AA-transfected HEK293 cells
T1 construct: expressed in transfected cells; host or cells: HEK293
Description: We therefore characterized the responses of TPC2 channels to TCAs in detail using electrophysiological methods. We first performed whole-cell recordings in HEK293 cells that were transfected with surface-expressed TPC2 mutant channels (TPC2-L^11L^12-AA; abbreviated as TPC2^LL/AA hereafter).
All TPC1 and TPC2 mutants were generated with a site-directed mutagenesis kit (Qiagen) using EGFP- human TPC1 and TPC2 as the templates. All constructs were confirmed by DNA sequencing.
Cells were transfected with Lipofectamine 2000 (Invitrogen). After culture media were refreshed 18–24 hr post-transfection, cells were used for the electrophysiological assays 24–36 hr post-transfection.
All bath solutions were applied via a perfusion system that allowed complete solution exchange within a few seconds. […] Whole-cell currents were digitized at 10 kHz and filtered at 2 kHz.

hTPC2 = target: T2, hTPC2 (Homo sapiens, UniProt Q8NHX9); assay: Whole-endolysosome recordings of ITPC2; type: biochemical; parameters: Whole endo-lysosomal TPC2 current activated by LyNa-VAs, Test 3 / Whole endo-lysosomal TPC2 current activated by LyNa-VAs, mean: unit not given here; details: for Whole endo-lysosomal TPC2 current activated by LyNa-VAs, mean: mean of n tests; for ITPC2: whole endolysosome recordings with 100 µM of LyNa-VAs at −120 mV
T2 construct: expressed in transfected cells; host or cells: Cos1 and HEK293
T2 sequence (Q8NHX9 whole entry): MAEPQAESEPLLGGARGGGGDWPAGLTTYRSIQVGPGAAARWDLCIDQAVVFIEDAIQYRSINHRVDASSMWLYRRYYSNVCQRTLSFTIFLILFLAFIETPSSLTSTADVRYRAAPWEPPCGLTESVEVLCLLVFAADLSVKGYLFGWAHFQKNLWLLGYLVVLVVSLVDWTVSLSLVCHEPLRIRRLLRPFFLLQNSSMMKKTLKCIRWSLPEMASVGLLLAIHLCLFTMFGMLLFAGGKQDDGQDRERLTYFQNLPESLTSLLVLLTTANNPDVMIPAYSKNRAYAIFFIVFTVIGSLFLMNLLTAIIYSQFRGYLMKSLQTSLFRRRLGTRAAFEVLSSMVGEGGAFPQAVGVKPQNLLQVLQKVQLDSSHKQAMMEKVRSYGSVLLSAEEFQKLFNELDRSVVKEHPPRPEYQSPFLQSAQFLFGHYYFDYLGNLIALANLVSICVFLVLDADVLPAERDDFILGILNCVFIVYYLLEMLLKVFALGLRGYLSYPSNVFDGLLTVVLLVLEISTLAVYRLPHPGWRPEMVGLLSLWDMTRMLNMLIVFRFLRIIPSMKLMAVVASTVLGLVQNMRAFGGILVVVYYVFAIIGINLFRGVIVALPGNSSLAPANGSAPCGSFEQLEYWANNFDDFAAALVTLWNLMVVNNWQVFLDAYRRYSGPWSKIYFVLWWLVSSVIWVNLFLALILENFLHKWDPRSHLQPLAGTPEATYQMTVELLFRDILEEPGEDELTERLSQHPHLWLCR

T1 sequence (Q8NHX9 whole entry L11A/L12A): as the sequence (Q8NHX9 whole entry) above, with L11A, L12A counted along it

## N#C/C(=C\c1ccc(O)c(O)c1)C(=O)NCc1ccccc1 [Tyrphostin B42]
[1]
  I-TPC2: No activation

## C[N+](C)(C)CC#CCN1CCCC1=O
[1]
  I-TPC2: No activation

## CC(C[N+](C)(C)C)OC(N)=O (stereo not shown) [Bethanechol chloride]
[1]
  I-TPC2: No activation

## NC(=O)N1c2ccccc2C=Cc2ccccc21 [Carbamazepine]
[1]
  activation of whole-cell ITPC2-LL/AA (in words): no significant activation
  EC50: No activation
[1]; listed as carbamazepine
  activation of whole-cell ITPC2-LL/AA (in words): not by carbamazepine
[1]; 5 µM
  current density: 8.018 pA/pF and 9.073 pA/pF and 6.645 pA/pF
[1]; 10 µM
  current density: 8.227 pA/pF and 9.227 pA/pF and 5.436 pA/pF
[1]; 20 µM
  current density: 8.573 pA/pF and 9.164 pA/pF and 6.418 pA/pF
[1]; 50 µM
  current density: 8.8 pA/pF and 8.755 pA/pF and 6.073 pA/pF
[1]; 100 µM
  current density: 7.691 pA/pF and 8.973 pA/pF and 5.518 pA/pF
[1]; 200 µM
  current density: 7.464 pA/pF and 9.855 pA/pF and 6.164 pA/pF
[1]; 400 µM
  current density: 8.109 pA/pF and 8.755 pA/pF and 7.1 pA/pF
hTPC2; 100uM, individual recording
  Whole endo-lysosomal TPC2 current activated by LyNa-VAs, Test 1: -17
  Whole endo-lysosomal TPC2 current activated by LyNa-VAs, Test 2: 9.3
  Whole endo-lysosomal TPC2 current activated by LyNa-VAs, Test 3: 23.1
hTPC2; 100uM
  Whole endo-lysosomal TPC2 current activated by LyNa-VAs, mean: 5.1
hTPC2
  ITPC2: No activation

## CN(C)CCCN1c2ccccc2CCc2ccccc21 [LyNa-VA1.3, Imipramine]
[1]; 10 µM
  current density: 4.664 pA/pF and 36.5364 pA/pF and 8.182 pA/pF
[1]; 20 µM
  current density: 6.518 pA/pF and 56.7909 pA/pF and 7.655 pA/pF
[1]; 50 µM
  current density: 14.1182 pA/pF and 126.618 pA/pF and 15.6182 pA/pF
[1]; 100 µM
  current density: 42.3 pA/pF and 158.945 pA/pF and 32.4364 pA/pF
[1]; 200 µM
  current density: 99.9 pA/pF and 167.955 pA/pF and 41.0364 pA/pF
[1]; 400 µM
  current density: 103.264 pA/pF
[1]; read-out: EC50
  EC50: 112 ± 1 µM
hTPC2
  ITPC2: 433 ± 94 pA

## C#CCOC(=O)C1=CCCN(C)C1 [Arecaidine propargyl ester]
[1]
  I-TPC2: No activation

## CN(C)CCCN1c2ccccc2Sc2ccc(C(F)(F)F)cc21 [LyNa-VA2.2/triflupromazine]
hTPC2; 100uM, individual recording
  Whole endo-lysosomal TPC2 current activated by LyNa-VAs, Test 1: 1572
  Whole endo-lysosomal TPC2 current activated by LyNa-VAs, Test 2: 698
  Whole endo-lysosomal TPC2 current activated by LyNa-VAs, Test 3: 681.2
hTPC2; 100uM
  Whole endo-lysosomal TPC2 current activated by LyNa-VAs, mean: 983.7

## CNCCC=C1c2ccccc2CCc2ccccc21 [LyNa-VA1.5/nortriptyline]
hTPC2; 100uM, individual recording
  Whole endo-lysosomal TPC2 current activated by LyNa-VAs, Test 1: 1814.6
  Whole endo-lysosomal TPC2 current activated by LyNa-VAs, Test 2: 1075.1
  Whole endo-lysosomal TPC2 current activated by LyNa-VAs, Test 3: 1937.9
hTPC2; 100uM, individual recording, Test 4
  Whole endo-lysosomal TPC2 current activated by LyNa-VAs, Test 4: 2836.3
hTPC2; 100uM
  Whole endo-lysosomal TPC2 current activated by LyNa-VAs, mean: 1916.0

## CN(C)CCCN1c2ccccc2Sc2ccc(C(F)(F)F)cc21 [Triflupromazine hydrochloride]
[1]
  I-TPC2: >1500 pA

## COC(=O)C1=CCCN(C)C1 [Arecoline]
[1]
  I-TPC2: No activation

## CN(C)CCC=C1c2ccccc2CCc2ccccc21 [Amitriptyline hydrochloride]
[1]
  I-TPC2: ~1000 pA

## CN(C)CCC[C@@]1(c2ccc(F)cc2)OCc2cc(C#N)ccc21 [Escitalopram]
[1]
  I-TPC2: No activation

## CCCNCC(O)COc1ccccc1C(=O)CCc1ccccc1 (stereo not shown) [Propafenone]
[1]
  I-TPC2: No activation

## CN(C)CCCN1c2ccccc2CCc2ccccc21 [LyNa-VA1.3/imipramine]
hTPC2; 100uM, individual recording
  Whole endo-lysosomal TPC2 current activated by LyNa-VAs, Test 1: 621.3
  Whole endo-lysosomal TPC2 current activated by LyNa-VAs, Test 2: 343.9
  Whole endo-lysosomal TPC2 current activated by LyNa-VAs, Test 3: 334.8
hTPC2; 100uM
  Whole endo-lysosomal TPC2 current activated by LyNa-VAs, mean: 433.3

## N=C(N)NC(=O)Cc1c(Cl)cccc1Cl [Guanfacine hydrochloride]
[1]
  I-TPC2: No activation

## CN(C)CCCN1c2ccccc2Sc2ccc(Cl)cc21 [Chlorpromazine hydrochloride]
[1]
  I-TPC2: >1500 pA

## C[C@@H]1O[C@H](C[N+](C)(C)C)C[C@H]1O [Muscarine]
[1]
  I-TPC2: No activation

## C[N+](C)(C)CCOC(N)=O [Carbachol]
[1]
  I-TPC2: No activation

## CN(C)CCCN1c2ccccc2Sc2ccc(Cl)cc21 [LyNa-VA2.1/chlorpromazine]
hTPC2; 100uM, individual recording
  Whole endo-lysosomal TPC2 current activated by LyNa-VAs, Test 1: 1013.4
  Whole endo-lysosomal TPC2 current activated by LyNa-VAs, Test 2: 2019.9
  Whole endo-lysosomal TPC2 current activated by LyNa-VAs, Test 3: 268.2
hTPC2; 100uM
  Whole endo-lysosomal TPC2 current activated by LyNa-VAs, mean: 1100.5

## CC(=O)OC(C)C[N+](C)(C)C (stereo not shown) [Methacholine chloride]
[1]
  I-TPC2: No activation

## CNCCCC1c2ccccc2C=Cc2ccccc21 [Protriptyline hydrochloride]
[1]
  I-TPC2: ~1000 pA

## c1ccc2c(c1)Nc1ccccc1S2 [Phenothiazine]
[1]
  activation of whole-cell ITPC2-LL/AA (in words): no significant activation
  EC50: No activation
[1]; 10 µM
  current density: 10.2273 pA/pF and 10.0273 pA/pF and 9.7 pA/pF
[1]; 20 µM
  current density: 11.0091 pA/pF and 7.509 pA/pF and 8.936 pA/pF
[1]; 50 µM
  current density: 10.7545 pA/pF and 9.7 pA/pF and 10.2182 pA/pF
[1]; 100 µM
  current density: 9.9 pA/pF and 8.064 pA/pF and 9.882 pA/pF
[1]; 200 µM
  current density: 10.0545 pA/pF and 9.218 pA/pF and 9.555 pA/pF
hTPC2; 100uM, individual recording
  Whole endo-lysosomal TPC2 current activated by LyNa-VAs, Test 1: 10.3
  Whole endo-lysosomal TPC2 current activated by LyNa-VAs, Test 2: -2.6
  Whole endo-lysosomal TPC2 current activated by LyNa-VAs, Test 3: 4.8
hTPC2; 100uM
  Whole endo-lysosomal TPC2 current activated by LyNa-VAs, mean: 4.2
hTPC2
  ITPC2: No activation

## CCN(CC)CCCC(C)Nc1c2ccc(Cl)cc2nc2ccc(OC)cc12 (stereo not shown) [Quinacrine dihydrochloride dihydrate]
[1]
  I-TPC2: No activation

## CN(C)CCC=C1c2ccccc2CCc2ccccc21 [LyNa-VA1.4, Amitriptyline]
[1]
  activation of whole-cell ITPC2-LL/AA (in words): ITPC2 was evoked
[1]; 5 µM
  current density: 12.4 pA/pF
[1]; 10 µM
  current density: 7.736 pA/pF and 9.045 pA/pF and 6.655 pA/pF and 9.464 pA/pF
[1]; 20 µM
  current density: 11.0727 pA/pF and 11.9545 pA/pF and 11.2909 pA/pF and 11.6545 pA/pF
[1]; 50 µM
  current density: 26.9364 pA/pF and 36.5091 pA/pF and 23.5818 pA/pF and 26.8545 pA/pF
[1]; 100 µM
  current density: 95.0727 pA/pF and 115.527 pA/pF and 80.9273 pA/pF and 83.2 pA/pF
[1]; 200 µM
  current density: 156.364 pA/pF and 155.436 pA/pF and 160.382 pA/pF and 158.109 pA/pF
[1]; 400 µM
  current density: 179.973 pA/pF
[1]; read-out: EC50
  EC50: 102 ± 3 µM
hTPC2
  ITPC2: 876 ± 196 pA

## CN(C)CCCN1c2ccccc2Sc2ccc(C(F)(F)F)cc21 [LyNa-VA2.2, Triflupromazine]
[1]; 10 µM
  current density: 5.827 pA/pF and 3.645 pA/pF and 3 pA/pF
[1]; 20 µM
  current density: 9.373 pA/pF and 9.136 pA/pF and 3.482 pA/pF
[1]; 50 µM
  current density: 33.1545 pA/pF and 26.4182 pA/pF and 44.2909 pA/pF
[1]; 100 µM
  current density: 125.791 pA/pF and 49.7455 pA/pF and 115.618 pA/pF
[1]; 200 µM
  current density: 155.109 pA/pF and 66.0091 pA/pF and 133.127 pA/pF
[1]; read-out: EC50
  EC50: 63 ± 2 µM
hTPC2
  ITPC2: 984 ± 294 pA

## CN1Cc2c(N)cccc2C(c2ccccc2)C1 (stereo not shown) [Nomifensine maleate]
[1]
  I-TPC2: No activation

## CN(C)c1cc2c(Nc3ccc4c(cnn4Cc4ccccc4)c3)ncnc2cn1
[1]
  I-TPC2: No activation

## CN(C)C(=O)C(CCN1CCC(O)(c2ccc(Cl)cc2)CC1)(c1ccccc1)c1ccccc1 [Loperamide]
[1]
  I-TPC2: No activation

## O=C(Nc1ccc([N+](=O)[O-])cc1Cl)c1cc(Cl)ccc1O [Niclosamide]
[1]
  I-TPC2: No activation

## CC(=O)NBr [n-Bromoacetamide]
[1]
  I-TPC2: No activation

## CC(C)(C)c1cc(/C=C(\C#N)C(N)=S)cc(C(C)(C)C)c1O [Tyrphostin AG 879]
[1]
  I-TPC2: No activation
